“And” between values parts separate entries of the source, which are not always exact repeats. Equal entries are not always repeated. “Also recorded” adds a separate entry of the source.
Experiments:
[1] = tested on: SDH-deficient primary GIST cells; assay: Antiproliferation in SDH-deficient primary GIST cells (CellTiter 96 Aqueous assay, 72 hours); format: cell-based, human; conditions: all three primary cell lines derived from patients with SDH-deficient GIST
Experimental: Cells were seeded into 6-well plates and incubated overnight in complete culture medium.
All samples were collected at Sun Yat-sen University Cancer Center with informed consent obtained from each subject. The study, which involved human subjects, was approved by the Medical Ethics Committee of Sun Yat-sen University Cancer Center.
The tissues from GIST patient samples were sustained in Dulbecco's modified Eagle medium (DMEM)/F12 medium containing 1% antibiotic and washed with phosphate-buffered saline (PBS) and then cut into fragments by surgical ophthalmic scissors. The tissues were digested with 1 mg/mL collagenase IV at 37° C. for 30 minutes, followed by filtration of the suspension into single cells with a single-cell strainer centrifugation. […] The procedures were performed as per manufacturers' instructions.

[2] = Phase 1 trial HQP1351-SJ-0003 of olverembatinib: safety (adverse events, DLT, MTD/RP2D); format: in vivo, human; conditions: for Abdominal pain, treatment-emergent AE / Anemia, treatment-emergent AE / Constipation, treatment-emergent AE / Fatigue, treatment-emergent AE / Hyperuricemia, treatment-emergent AE / Increased alanine aminotransferase, treatment-emergent AE / Increased aspartate aminotransferase, treatment-emergent AE / Increased leukocyte count, treatment-emergent AE / Increased neutrophil count, treatment-emergent AE / Pyrexia, treatment-emergent AE: all patients N = 66
Description: The dose escalation aspect of the study enrolled patients with advanced and/or metastatic GIST or other solid tumors that were refractory or had relapsed after treatment with at least one TKI.
Eligible patients were adults (≥18 years) who had advanced and/or metastatic GISTs or other solid tumors confirmed by histology and/or cytology. The definition of SDH-deficient GIST was based on pathological phenotype with negative immunohistochemical staining for SDHB. Also required for study enrollment were Eastern Cooperative Oncology Group performance status (ECOG PS)≤2; and adequate renal, hepatic, cardiac, and bone marrow function. A full list of inclusion and exclusion criteria is in the protocol. Enrollment trends, ongoing review of study data, and evolving knowledge regarding the GIST treatment paradigm informed the study sponsor's medical director's and investigators' decision to analyze the SDH-deficient GIST patient subgroup separately.
Based on encouraging initial activity and favorable tolerability (Qiu, H., et al., J. Clin. Oncol. 40, 11513 (2022)), additional patients with SDH-deficient GIST were enrolled to further explore efficacy, and patients with TKI-naïve SDH-deficient GIST and adolescent patients (aged 12-18 years old) with SDH-deficient GIST were permitted. After data from the dose-escalation part of the study were reviewed during a meeting of the principal investigators and a postmarket dose was recommended to treat CML, all adult patients received 40 mg QOD (determined RP2D dose), and adolescent patients received 20 to 40 mg QOD based on body weight. If body weight was at least 40 kg, patients received 40 mg QOD; if within 30-40 kg, 30 mg QOD; and, if within 20-30 kg, 20 mg QOD. Patients with SDH-deficient malignant paraganglioma who had failed at least one treatment and were without appropriate treatment (as judged by investigators) were also enrolled. Treatment could continue until precluded by toxicity, noncompliance, withdrawal of consent, physician decision, progressive disease, death, or closure of the study. All protocol modifications, including those increasing the number of patients and cohorts in the dose-expansion aspect, are established in the trial protocol version dated May 27, 2022.
Physical examination and adverse events (AEs) were evaluated at each follow-up visit (day −28~day −1 after signed informed consent form); on days 1, 8, 15, and 22 during cycles 1 and 2; and on days 1 and 15 in cycle 3 and all subsequent cycles, up to 30 days after the final dose. All AEs were graded according to the US National Cancer Institute (NCI) Common Terminology Criteria for Adverse Events (CTCAE; version 4.03). Clinical laboratory investigations for routine blood examinations and serum chemistry parameters were performed during every cycle (on day 1); cycles 1 and 2 (on days 8, 15, and 22); and 30 days after the last dose of treatment. Urinalysis, coagulation, cardiac troponin I/T, lipase, amylase, and electrocardiograms were done at baseline; during cycles 1 and 2 (on days 1 and 15); cycle 3, 5, 7, and 9; every 3 cycles after cycle 9 (on day 1); and 14 days after the last dose of treatment. All patients underwent tumor imaging for response assessment via computed tomography or magnetic resonance imaging at screening and every two cycles (8 weeks) until progression or discontinuation. Target and nontarget lesions were assessed per Response Evaluation Criteria in Solid Tumors version 1.1 (RECIST v1.1).
The data cutoff for this analysis was Dec. 27, 2023. The safety population included all patients who received at least one dose of olverembatinib. The SDH-deficient GIST population (prespecified subgroup) included patients in the safety population. MTD was defined as the highest dose level with no more than one dose-limiting toxicity in six patients.

[3] = reported in ≥2 patients, N = 66

For `Cc1ccc(C(=O)Nc2ccc(CN3CCN(C)CC3)c(C(F)(F)F)c2)cc1C#Cc1cnc2[nH]ncc2c1` [Olverembatinib, olverembatinib], the “potency rank among TKIs” value [1] was “most potent inhibitor”, the dose-limiting toxicities ([2]; 20-50 mg QOD) was “No dose-limiting toxicities were reported; also recorded: No dose-limiting toxicity was observed” and the “maximum tolerated dose (MTD)” value ([2]; 20-50 mg QOD) was “not reached”. The “dose reductions due to TRAEs” value ([2]; N = 66) was “dose reductions in two patients”, the “patients who experienced grade ≥3 TRAEs” value ([2]; N = 66) was 13.6% and the “patients who experienced treatment-related adverse events (TRAEs)” value ([2]; N = 66) was 93.9%. The “treatment-related serious adverse events” value ([2]; N = 66) was 7.6%, the “Anemia, treatment-related serious AE” value ([2]; N = 66, value is N) was 2 N (%) and the “Coronary sclerosis, treatment-related serious AE” value ([2]; N = 66, value is N) was 1 N (%). For the same compound, the “Intestinal obstruction, treatment-related serious AE” value ([2]; N = 66, value is N) was 1 N (%), the “Leukemoid reaction, treatment-related serious AE” value ([2]; N = 66, value is N) was 1 N (%) and the “subjects who experienced treatment-emergent adverse events (TEAEs)” value ([2]; all 66 subjects, oral 20-50 mg QOD) was 100.0%. The “Abdominal pain, treatment-related AE” value ([2]; any grade, N = 66, value is N) was 3 N (%), the “Anemia, treatment-related AE” value ([2]; any grade, N = 66, value is N) was 9 N (%) and the “Constipation, treatment-related AE” value ([2]; any grade, N = 66, value is N) was 23 N (%). For the same compound, the “Coronary sclerosis, treatment-related AE” value ([2]; any grade, N = 66, value is N) was 1 N (%), the “Decreased neutrophil count, treatment-related AE” value ([2]; any grade, N = 66, value is N) was 3 N (%) and the “Fatigue, treatment-related AE” value ([2]; any grade, N = 66, value is N) was 18 N (%). For the same compound, the “Hypertension, treatment-related AE” value ([2]; any grade, N = 66, value is N) was 3 N (%), the “Hyperuricemia, treatment-related AE” value ([2]; any grade, N = 66, value is N) was 12 N (%) and the “Hypoalbuminemia, treatment-related AE” value ([2]; any grade, N = 66, value is N) was 10 N (%). For the same compound, the “Increased CRP, treatment-related AE” value ([2]; any grade, N = 66, value is N) was 11 N (%), the “Increased WBC count, treatment-related AE” value ([2]; any grade, N = 66, value is N) was 27 N (%) and the “Increased alanine aminotransferase, treatment-related AE” value ([2]; any grade, N = 66, value is N) was 20 N (%). For the same compound, the “Increased aspartate aminotransferase, treatment-related AE” value ([2]; any grade, N = 66, value is N) was 23 N (%), the “Increased creatinine, treatment-related AE” value ([2]; any grade, N = 66, value is N) was 9 N (%) and the “Increased neutrophil count, treatment-related AE” value ([2]; any grade, N = 66, value is N) was 22 N (%). For the same compound, the “Increased platelet count, treatment-related AE” value ([2]; any grade, N = 66, value is N) was 7 N (%), the “Intestinal obstruction, treatment-related AE” value ([2]; any grade, N = 66, value is N) was 2 N (%) and the “Leukemoid reaction, treatment-related AE” value ([2]; any grade, N = 66, value is N) was 1 N (%). For the same compound, the “Melanocytic nevi, treatment-related AE” value ([2]; any grade, N = 66, value is N) was 15 N (%), the “Abdominal pain, treatment-emergent AE” value ([2]; any grade) was 15 N (%) and 15 (22.7) N (%) and the “Anemia, treatment-emergent AE” value ([2]; any grade) was 31 N (%) and 31 (47.0) N (%). The “Constipation, treatment-emergent AE” value ([2]; any grade) was 27 N (%) and 27 (40.9) N (%), the “Fatigue, treatment-emergent AE” value ([2]; any grade) was 20 (30.3) N (%) and the “Hyperuricemia, treatment-emergent AE” value ([2]; any grade) was 31 (47.0) N (%). For the same compound, the “Increased alanine aminotransferase, treatment-emergent AE” value ([2]; any grade) was 25 N (%) and 25 (37.9) N (%), the “Increased aspartate aminotransferase, treatment-emergent AE” value ([2]; any grade) was 31 N (%) and 31 (47.0) N (%) and the “Increased leukocyte count, treatment-emergent AE” value ([2]; any grade) was 32 N (%) and 32 (48.5) N (%). For the same compound, the “Increased neutrophil count, treatment-emergent AE” value ([2]; any grade) was 25 N (%) and 25 (37.9) N (%), the “Pyrexia, treatment-emergent AE” value ([2]; any grade) was 28 N (%) and 28 (42.4) N (%) and the “Abdominal pain, treatment-related AE” value ([2]; grades 3-5, N = 66, value is N) was 1 N (%). For the same compound, the “Anemia, treatment-related AE” value ([2]; grades 3-5, N = 66, value is N) was 1 N (%), the “Constipation, treatment-related AE” value ([2]; grades 3-5, N = 66, value is N) was 0 N (%) and the “Coronary sclerosis, treatment-related AE” value ([2]; grades 3-5, N = 66, value is N) was 1 N (%). For the same compound, the “Decreased neutrophil count, treatment-related AE” value ([2]; grades 3-5, N = 66, value is N) was 2 N (%), the “Fatigue, treatment-related AE” value ([2]; grades 3-5, N = 66, value is N) was 1 N (%) and the “Hypertension, treatment-related AE” value ([2]; grades 3-5, N = 66, value is N) was 1 N (%). For the same compound, the “Hyperuricemia, treatment-related AE” value ([2]; grades 3-5, N = 66, value is N) was 0 N (%), the “Hypoalbuminemia, treatment-related AE” value ([2]; grades 3-5, N = 66, value is N) was 0 N (%) and the “Increased CRP, treatment-related AE” value ([2]; grades 3-5, N = 66, value is N) was 0 N (%). The “Increased WBC count, treatment-related AE” value ([2]; grades 3-5, N = 66, value is N) was 0 N (%), the “Increased alanine aminotransferase, treatment-related AE” value ([2]; grades 3-5, N = 66, value is N) was 1 N (%) and the “Increased aspartate aminotransferase, treatment-related AE” value ([2]; grades 3-5, N = 66, value is N) was 1 N (%). For the same compound, the “Increased creatinine, treatment-related AE” value ([2]; grades 3-5, N = 66, value is N) was 0 N (%), the “Increased neutrophil count, treatment-related AE” value ([2]; grades 3-5, N = 66, value is N) was 0 N (%) and the “Increased platelet count, treatment-related AE” value ([2]; grades 3-5, N = 66, value is N) was 0 N (%). For the same compound, the “Intestinal obstruction, treatment-related AE” value ([2]; grades 3-5, N = 66, value is N) was 1 N (%), the “Leukemoid reaction, treatment-related AE” value ([2]; grades 3-5, N = 66, value is N) was 1 N (%) and the “Melanocytic nevi, treatment-related AE” value ([2]; grades 3-5, N = 66, value is N) was 0 N (%). The “Abdominal pain, treatment-emergent AE” value ([2]; grades 3-5) was 1 (1.5) N (%), the “Anemia, treatment-emergent AE” value ([2]; grades 3-5) was 4 (6.1) N (%) and the “Constipation, treatment-emergent AE” value ([2]; grades 3-5) was 0 N (%). For the same compound, the “Fatigue, treatment-emergent AE” value ([2]; grades 3-5) was 1 (1.5) N (%), the “Hyperuricemia, treatment-emergent AE” value ([2]; grades 3-5) was 1 (1.5) N (%) and the “Increased alanine aminotransferase, treatment-emergent AE” value ([2]; grades 3-5) was 2 (3.0) N (%). For the same compound, the “Increased aspartate aminotransferase, treatment-emergent AE” value ([2]; grades 3-5) was 2 (3.0) N (%), the “Increased leukocyte count, treatment-emergent AE” value ([2]; grades 3-5) was 0 N (%) and the “Increased neutrophil count, treatment-emergent AE” value ([2]; grades 3-5) was 0 N (%). The “Pyrexia, treatment-emergent AE” value ([2]; grades 3-5) was 0 N (%), the “patients who required treatment interruption” value ([2]; of 66 patients) was 31.8% and the RP2D ([2]; on alternate days (QOD)) was 40 mg. The tolerability ([2]; patients in the phase 1 trial) was “well tolerated”, the “Anemia, serious treatment-emergent AE” value [2, 3] was 2 (3.0) N (%) and the “Intestinal obstruction, serious treatment-emergent AE” value [2, 3] was 5 (7.6) N (%).
